Results: patent US20240252673A1, “ANTI-TISSUE FACTOR ANTIBODY-DRUG CONJUGATES AND THEIR USE IN THE TREATMENT OF CANCER” (priority 2017, published 2024)

Columns and labels:
Assay type in all cases: in vivo, human
[1] = test system: locally advanced and/or metastatic cancer of various types including cervical cancer; test: Phase I/II dose-escalation study: anti-tumor activity per RECIST v1.1 (CT scans every six weeks)
Protocol: A first-in-human phase I/II dose-escalating study following a 3+3 dose-escalation design was conducted in order to test the safety of tisotumab vedotin in 27 subjects with locally advanced and/or metastatic cancer of various types including cervical cancer (FIG. 2). Tisotumab vedotin was administered by intravenous infusion at doses ranging from 0.3 mg/kg to 2.2 mg/kg on day 1 of a 21-day cycle for four cycles (i.e., each treatment cycle was 3 weeks). Patients with stable disease (SD) or better at the end of four cycles had the option to continue treatment with tisotumab vedotin for eight additional cycles (FIG. 2). Tumor evaluations were performed by CT scans every six weeks. In order to qualify for SD, results of the CT scan scheduled for week six needed to be SD or better. Two CT scans were performed outside the per-protocol defined window.
A primary objective of the study was to assess the safety and tolerability in a mixed population of patients with specified solid tumors. Adverse event (AE) severity was graded according to Common Terminology Criteria for Adverse Events (CTCAE) version 4.03. Secondary objectives of the study included determining the pharmacokinetic (PK) profile of tisotumab vedotin and preliminary evaluation of anti-tumor activity as assessed according to Response Evaluation Criteria in Solid Tumors [RECIST] version 1.1. Dose-limiting toxicities (DLTs) were determined during the first cycle and were defined as grade≥3 events possibly related to tisotumab vedotin. […] Tumor biopsies were required at baseline for TF expression which was assessed by immunohistochemistry utilizing tisotumab. TF staining intensity was determined using the H-scoring system.

[2] = test system: patients with relapsed, recurrent and/or metastatic cervical cancer; test: Phase IIa single arm trial: safety and tolerability (CTCAE v4.03); settings: 2.0 mg/kg q3w
Protocol: (§1) A Phase IIa single arm, multicenter trial investigated the efficacy, safety and tolerability of 2.0 mg/kg tisotumab vedotin in patients with relapsed, recurrent and/or metastatic cervical cancer. A total of 34 patients (n=34) were enrolled and received at least 1 dose of tisotumab vedotin. Each eligible patient was assigned to receive an intravenous (IV) infusion dose of tisotumab vedotin at a concentration of 2.0 mg/kg on day 1 of a 21-day cycle (i.e., each treatment cycle was 3 weeks (q3w)).
Lyophilized vials containing 40 mg of tisotumab vedotin were stored in a refrigerator at 2° C. to 8° C. Tisotumab vedotin was reconstituted in 4 ml of water leading to a reconstituted solution comprising 10 mg/mL tisotumab vedotin, 30 mM histidine, 88 mM sucrose, and 165 mM D-mannitol. […] The reconstituted tisotumab vedotin was diluted into a 0.9% NaCl 100 mL infusion bag according to the dose calculated for the patient to receive 2.0 mg/kg tisotumab vedotin. Intravenous infusion was completed within 24 hours after the tisotumab vedotin vial had been reconstituted. A 0.2 μm in-line filter was used for the intravenous infusion. The entire 100 mL volume from the prepared infusion bag was administered. No dead volume was provided.
(§2) A primary objective of the study was to assess safety and tolerability of tisotumab vedotin. Adverse event (AE) severity was graded according to CTCAE version 4.03. A secondary objective was preliminary evaluation of anti-tumor activity durability as assessed according to RECIST version 1.1. Tumor evaluations were performed by CT scans every six weeks.

[3] = test system: relapsed, recurrent and/or metastatic cervical cancer; test: Phase IIa single arm trial: anti-tumor activity per RECIST v1.1; settings: 2.0 mg/kg q3w
Protocol: as §1, §2

[4] = test system: relapsed, recurrent and/or metastatic cervical cancer; test: as above
[5] = Patient 2, cervical cancer, 1.2 mg/kg

Q: What does the source list for tisotumab vedotin?
A: Confirmed Response per RECIST v1.1: Complete response (CR) ([1]; 0.3 mg/kg (n = 3)): 0 n; Confirmed Response per RECIST v1.1: Not evaluable ([1]; 0.3 mg/kg (n = 3)): 0 n; Confirmed Response per RECIST v1.1: Partial response (PR) ([1]; 0.3 mg/kg (n = 3)): 0 n; Confirmed Response per RECIST v1.1: Complete response (CR) ([1]; 0.6 mg/kg (n = 3)): 0 n; Confirmed Response per RECIST v1.1: Partial response (PR) ([1]; 0.6 mg/kg (n = 3)): 0 n; Confirmed Response per RECIST v1.1: Complete response (CR) ([1]; 0.9 mg/kg (n = 3)): 0 n; Confirmed Response per RECIST v1.1: Not evaluable ([1]; 0.9 mg/kg (n = 3)): 0 n; Confirmed Response per RECIST v1.1: Partial response (PR) ([1]; 0.9 mg/kg (n = 3)): 0 n; Confirmed Response per RECIST v1.1: Complete response (CR) ([1]; 1.2 mg/kg (n = 3)): 0 n; Confirmed Response per RECIST v1.1: Not evaluable ([1]; 1.2 mg/kg (n = 3)): 0 n; Confirmed Response per RECIST v1.1: Complete response (CR) ([1]; 1.5 mg/kg (n = 3)): 0 n; Confirmed Response per RECIST v1.1: Not evaluable ([1]; 1.5 mg/kg (n = 3)): 0 n; Confirmed Response per RECIST v1.1: Partial response (PR) ([1]; 1.5 mg/kg (n = 3)): 0 n; Confirmed Response per RECIST v1.1: Complete response (CR) ([1]; 1.8 mg/kg (n = 3)): 0 n; Confirmed Response per RECIST v1.1: Not evaluable ([1]; 1.8 mg/kg (n = 3)): 0 n; Confirmed Response per RECIST v1.1: Partial response (PR) ([1]; 1.8 mg/kg (n = 3)): 0 n; Confirmed Response per RECIST v1.1: Progressive disease (PD) ([1]; 1.8 mg/kg (n = 3)): 0 n; Confirmed Response per RECIST v1.1: Complete response (CR) ([1]; 2.0 mg/kg (n = 3)): 0 n; Confirmed Response per RECIST v1.1: Not evaluable ([1]; 2.0 mg/kg (n = 3)): 0 n; Confirmed Response per RECIST v1.1: Partial response (PR) ([1]; 2.0 mg/kg (n = 3)): 0 n; Confirmed Response per RECIST v1.1: Complete response (CR) ([1]; 2.2 mg/kg (n = 6)): 0 n; Confirmed Response per RECIST v1.1: Not evaluable ([1]; 2.2 mg/kg (n = 6)): 0 n; Confirmed Response per RECIST v1.1: Partial response (PR) ([1]; 2.2 mg/kg (n = 6)): 0 n; reduction in tumor size relative to baseline ([1]; Patient 1, cervical cancer, 2.2 mg/kg): about 20%; best response [1, 5]: confirmed PR; continued benefit, total duration [1, 5]: 15 months; reduction in tumor size relative to baseline (target lesion) ([1]; Patient 2, stage 4 cervical cancer, 3 prior lines, 1.2 mg/kg): about 51%; Confirmed Response per RECIST v1.1: Complete response (CR) ([1]; all doses (n = 27)): 0 n; disease control rate (DCR; PR+SD) ([1]; all doses, 26 patients evaluated): 46%; patients withdrew from treatment due to disease progression ([1]; all doses, 27 patients): 67%; disease control rate (DCR; PR+SD), patients ([1]; all doses, out of 26 patients): 12 patients; grade 4 or grade 5 events ([2]; 34 patients): no grade 4 or grade 5 events; patients withdrew from treatment due to AE ([2]; 34 patients): 5 n; patients experienced conjunctivitis at grade≥3 ([2]; after mitigation (n=19)): 5%; patients experienced conjunctivitis of any grade ([2]; after mitigation (n=19)): 32%; patients experienced conjunctivitis of any grade ([2]; prior to mitigation (n=15)): 73%; safety profile, overall conclusion ([2]; cervical cancer cohort): manageable safety profile; patients withdrew from treatment due to disease progression ([3]; 34 patients): 16 n; Median DoR for confirmed and unconfirmed responses ([3]; N = 34): ^eMedian DoR of 5.4 months for confirmed and unconfirmed responses.; Median PFS ([3]; N = 34): 6.4 months; confirmed PR ([3]; N = 34): 8; unconfirmed PR ([3]; N = 34, 1 of which is still ongoing): 3; Objective response rate (ORR) ([3]; N = 34, 95% Confidence interval 17%-50%): 32 % of total patients; DCR (CR + PR + SD) ([3]; N = 34, clinical benefit after 12 weeks, 95% Confidence interval 35%-65%): 50 % of total patients; efficacy, overall conclusion ([3]; cervical cancer cohort): robust efficacy; Median DoR ([4]; 2.0 mg/kg q3w, N = 34): 8.3 months; Objective response rate (ORR) ([4]; 2.0 mg/kg q3w, N = 34): 11 n; DCR (CR + PR + SD) ([4]; 2.0 mg/kg q3w, N = 34, clinical benefit after 12 weeks): 17 n; ORR, combined unconfirmed + confirmed ([4]; expanded cohort, all efficacy-evaluable patients, N 51): 16 N; ORR, combined unconfirmed + confirmed ([4]; expanded cohort, all efficacy-evaluable patients, N 51, 95% CI 19-46): 31%; ORR, combined unconfirmed + confirmed ([4]; histology Adenocarcinoma, N 18): 4 N; ORR, combined unconfirmed + confirmed ([4]; histology Adenocarcinoma, N 18, 95% CI 6-48): 22%; ORR, combined unconfirmed + confirmed ([4]; histology Adenosquamous, N 4): 2 N; ORR, combined unconfirmed + confirmed ([4]; histology Adenosquamous, N 4, 95% CI 7-93): 50%; ORR, combined unconfirmed + confirmed ([4]; histology Other, N 2): 1 N; ORR, combined unconfirmed + confirmed ([4]; histology Other, N 2, 95% CI 1-99): 50%; ORR, combined unconfirmed + confirmed ([4]; histology Squamous, N 27): 9 N; ORR, combined unconfirmed + confirmed ([4]; histology Squamous, N 27, 95% CI 17-54): 33%; ORR, combined unconfirmed + confirmed ([4]; prior GOG 240 regimen No, N 14): 4 N; ORR, combined unconfirmed + confirmed ([4]; prior GOG 240 regimen No, N 14, 95% CI 8-58): 29%; ORR, combined unconfirmed + confirmed ([4]; prior GOG 240 regimen Yes, N 37): 12 N; ORR, combined unconfirmed + confirmed ([4]; prior GOG 240 regimen Yes, N 37, 95% CI 18-50): 32%; ORR, combined unconfirmed + confirmed ([4]; prior bevacizumab No, N 11): 4 N; ORR, combined unconfirmed + confirmed ([4]; prior bevacizumab No, N 11, 95% CI 11-69): 36%; ORR, combined unconfirmed + confirmed ([4]; prior bevacizumab Yes, N 40): 12 N; ORR, combined unconfirmed + confirmed ([4]; prior bevacizumab Yes, N 40, 95% CI 17-47): 30%; ORR, combined unconfirmed + confirmed ([4]; prior lines of systemic therapy 1, N 23): 8 N; ORR, combined unconfirmed + confirmed ([4]; prior lines of systemic therapy 1, N 23, 95% CI 16-57): 35%; ORR, combined unconfirmed + confirmed ([4]; prior lines of systemic therapy 2, N 17): 6 N; ORR, combined unconfirmed + confirmed ([4]; prior lines of systemic therapy 2, N 17, 95% CI 14-62): 35%; ORR, combined unconfirmed + confirmed ([4]; prior lines of systemic therapy 3-4, N 11): 2 N; ORR, combined unconfirmed + confirmed ([4]; prior lines of systemic therapy 3-4, N 11, 95% CI 2-52): 18%; ORR, combined unconfirmed + confirmed ([4]; prior taxane No, N 3): 1 N; ORR, combined unconfirmed + confirmed ([4]; prior taxane No, N 3, 95% CI 1-91): 33%; ORR, combined unconfirmed + confirmed ([4]; prior taxane Yes, N 48): 15 N; ORR, combined unconfirmed + confirmed ([4]; prior taxane Yes, N 48, 95% CI 19-46): 31%
